Source: ChEMBL document CHEMBL3244166, “Syntheses and biological activities of basically substituted isoalloxazines” (J Med Chem, 1978)

Tests used:
Rattus norvegicus [1] = experiment: Induction of riboflavin-like activity in weanling Wistar rat assessed as change in body weight at 2 mg/kg/day administered by stomach tube prior to feeding with riboflavin-deficient diet measured for 28 days in presence of 20 ug/day riboflavin (reference value: 3 +/- 1 g); format: functional
Rattus norvegicus [2] = experiment: Induction of riboflavin-like activity in weanling Wistar rat assessed as change in body weight at 2 mg/kg/day administered by stomach tube prior to feeding with riboflavin-deficient diet measured for 28 days in presence of 40 ug/day riboflavin (reference value: 3 +/- 1 g); format: functional
Rattus norvegicus [3] = experiment: Induction of riboflavin-like activity in weanling Wistar rat assessed as change in body weight at 2 mg/kg/day administered by stomach tube prior to feeding with riboflavin-deficient diet measured for 28 days in presence of 60 ug/day riboflavin (reference value: 3 +/- 1 g); format: functional
Rattus norvegicus [4] = experiment: In vivo inhibition of riboflavin activity in weanling Wistar rat assessed as decrease in body weight at 2 mg/kg/day administered by stomach tube prior to feeding with riboflavin-deficient diet measured for >= 14 days (reference value: 3 +/- 1 g); format: functional
[5] = Toxicity in weanling Wistar rat assessed as survival at 2 mg/rat/day administered by stomach tube prior to feeding with riboflavin-deficient diet measured for 28 days relative to control; settings: in vivo, oral
Rattus norvegicus [6] = experiment: In vivo inhibition of riboflavin activity in weanling Wistar rat assessed as change in body weight at 2 mg/kg/day administered by stomach tube prior to feeding with riboflavin-deficient diet measured for 28 days (reference value: 3 +/- 1 g); format: functional

| SMILES | Activity (Rattus norvegicus [1]) [g] | Activity (Rattus norvegicus [2]) [g] | Activity (Rattus norvegicus [3]) [g] | Activity (Rattus norvegicus [4]) [g] | survival at 672 h [5] [%] | Activity (Rattus norvegicus [6]) [g] |
| --- | --- | --- | --- | --- | --- | --- |
| CCc1cc2nc3c(=O)[nH]c(=O)nc-3n(CCN(CCO)CCO)c2cc1CC.Cl | -9 | 7 | 33 | -26 | 25 |  |
| Cc1cc2c(cc1Cl)nc1c(=O)[nH]c(=O)nc-1n2CCN(CCO)CCO.Cl |  |  |  |  | 100 | -8 |
| O=c1nc2n(CCN(CCO)CCO)c3cc(Cl)c(Cl)cc3nc-2c(=O)[nH]1 |  |  |  |  | 100 | 6 |
| Cc1cc2nc3c(=O)[nH]c(=O)nc-3n(CCN(CCO)CCO)c2cc1C | 35 |  |  |  | 40 | -10 |
| CCc1cc2nc3c(=O)[nH]c(=O)nc-3n(CCN(CCO)CCO)c2cc1C.Cl | -2 | 21 |  |  | 60 | -25 |
| Cc1cc2nc3c(=O)[nH]c(=O)nc-3n(CCN(CCO)CCO)c2cc1Cl.Cl |  |  |  |  | 100 | 0 |
